Here are results for 33 molecules from ChEMBL document CHEMBL1152034, “Solid phase synthesis of phosphinic acid endothelin converting enzyme inhibitors” (Bioorg Med Chem Lett, 1996).

The structures appear in SMILES notation.

The target of test [1] is Neprilysin (Homo sapiens, UniProt P08473). Kind of test: Inhibition of neutral endopeptidase in human umbilical vein endothelial cells. The test is classed as cell-based, Endothelial cell.
Test [2] concerns the target T1, Endothelin-converting enzyme 1 (Homo sapiens, UniProt P42892).
T1 sequence (P42892 whole entry): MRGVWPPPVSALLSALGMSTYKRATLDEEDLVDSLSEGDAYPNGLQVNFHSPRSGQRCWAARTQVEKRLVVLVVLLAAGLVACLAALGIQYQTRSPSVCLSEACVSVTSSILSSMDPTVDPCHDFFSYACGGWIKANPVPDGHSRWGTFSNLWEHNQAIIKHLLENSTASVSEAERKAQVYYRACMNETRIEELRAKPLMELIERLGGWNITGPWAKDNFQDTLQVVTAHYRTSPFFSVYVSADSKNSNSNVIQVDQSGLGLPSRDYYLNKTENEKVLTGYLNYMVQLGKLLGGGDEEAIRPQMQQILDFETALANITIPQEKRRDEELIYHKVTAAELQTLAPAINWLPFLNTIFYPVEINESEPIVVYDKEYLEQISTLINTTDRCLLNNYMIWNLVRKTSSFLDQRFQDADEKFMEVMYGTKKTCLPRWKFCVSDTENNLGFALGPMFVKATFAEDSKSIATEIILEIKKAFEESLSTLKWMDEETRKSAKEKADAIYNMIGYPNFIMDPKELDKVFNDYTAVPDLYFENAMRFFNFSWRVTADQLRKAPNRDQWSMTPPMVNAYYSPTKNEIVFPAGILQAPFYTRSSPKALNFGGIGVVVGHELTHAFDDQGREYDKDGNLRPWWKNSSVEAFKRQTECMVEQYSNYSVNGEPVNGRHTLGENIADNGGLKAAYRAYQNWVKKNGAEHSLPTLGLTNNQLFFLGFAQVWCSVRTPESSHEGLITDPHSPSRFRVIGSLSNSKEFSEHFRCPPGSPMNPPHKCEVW
Kind of test: Inhibition of endothelin-converting enzyme in human umbilical vein endothelial cells. The test is classed as cell-based, Endothelial cell.

Neprilysin, sequence (P08473 whole entry): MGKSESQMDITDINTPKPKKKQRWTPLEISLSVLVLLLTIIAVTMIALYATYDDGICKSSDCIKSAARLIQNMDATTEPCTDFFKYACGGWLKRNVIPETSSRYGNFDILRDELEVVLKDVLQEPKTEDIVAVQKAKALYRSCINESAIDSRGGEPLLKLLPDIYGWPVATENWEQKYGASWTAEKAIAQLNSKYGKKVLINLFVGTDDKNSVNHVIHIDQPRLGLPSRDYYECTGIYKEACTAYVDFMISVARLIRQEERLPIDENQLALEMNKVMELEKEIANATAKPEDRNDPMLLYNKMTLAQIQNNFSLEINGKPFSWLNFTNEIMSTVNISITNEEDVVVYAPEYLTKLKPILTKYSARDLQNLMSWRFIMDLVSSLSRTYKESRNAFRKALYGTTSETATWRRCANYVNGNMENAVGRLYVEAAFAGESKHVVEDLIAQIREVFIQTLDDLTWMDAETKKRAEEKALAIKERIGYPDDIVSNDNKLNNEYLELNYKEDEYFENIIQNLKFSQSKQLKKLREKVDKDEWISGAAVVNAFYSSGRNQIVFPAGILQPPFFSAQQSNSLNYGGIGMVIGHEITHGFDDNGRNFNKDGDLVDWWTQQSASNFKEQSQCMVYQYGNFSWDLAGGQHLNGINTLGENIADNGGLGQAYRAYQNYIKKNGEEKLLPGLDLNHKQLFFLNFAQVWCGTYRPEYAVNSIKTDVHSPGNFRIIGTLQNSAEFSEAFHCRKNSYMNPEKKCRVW

On to `O=C(N[C@@H](Cc1ccccc1)P(=O)(O)CC(Cc1ccccc1)C(=O)N[C@H](Cc1ccccc1)C(=O)O)OCc1ccccc1` (stereo partly drawn), for which the values for the IC50 in test [1] and in test [2] were > 60 µM and > 100 µM, respectively.
For the molecule `O=C(O)CNC(=O)C(Cc1ccccc1)CP(=O)(O)[C@H](Cc1ccccc1)NC(=O)OCc1ccccc1` (stereo partly drawn), the values for the half-maximal inhibitory concentration (IC50) in test [1] and in test [2] were 0.9 µM and 80 µM, respectively.
`O=C(O)[C@H](Cc1c[nH]c2ccccc12)NC(=O)[C@H](Cc1ccccc1)NP(=O)(O)CCCCc1ccccc1` yielded an IC50 in test [2] of 0.4 µM.
Turning to `CC(C)[C@H](NC(=O)C(Cc1ccccc1)CP(=O)(O)[C@H](Cc1ccccc1)NC(=O)OCc1ccccc1)C(N)=O` (stereo partly drawn), inhibition in test [2] was half-maximal at 20 µM (IC50).
As to `N=C(N)NCCCC(NC(=O)C(Cc1ccccc1)CP(=O)(O)[C@H](Cc1ccccc1)NC(=O)OCc1ccccc1)C(=O)O` (mixture of isomers), the half-maximal inhibitory concentration (IC50) in test [1] amounted to 0.8 µM; in test [2], 4.3 µM.
In the case of `CCC(C)C(NC(=O)C(Cc1ccccc1)CP(=O)(O)[C@H](Cc1ccccc1)NC(=O)OCc1ccccc1)C(=O)O` (mixture of isomers), in test [2], the half-maximal inhibitory concentration (IC50) came to 4 µM. This counts as single-digit micromolar.
In turn, `CC(C)[C@@H](NC(=O)C(Cc1ccccc1)CP(=O)(O)[C@H](Cc1ccccc1)NC(=O)OCc1ccccc1)C(=O)O` (mixture of isomers) had an IC50 in test [2] of 60 µM.
Regarding `O=C(O)CCC(NC(=O)C(Cc1ccccc1)CP(=O)(O)[C@H](Cc1ccccc1)NC(=O)OCc1ccccc1)C(=O)O` (mixture of isomers), in test [2], it took 25 µM to reach half-maximal inhibition (IC50).
With `O=C(O)CCNC(=O)C(Cc1ccccc1)CP(=O)(O)[C@H](Cc1ccccc1)NC(=O)OCc1ccccc1` (mixture of isomers), the IC50 in test [1] is 2.3 µM; in test [2], 50 µM.
`O=C(N[C@@H](Cc1ccccc1)P(=O)(O)CC(Cc1ccccc1)C(=O)NC(Cc1c[nH]cn1)C(=O)O)OCc1ccccc1` (mixture of isomers): the IC50 in test [1] was 10 µM; in test [2], 20 µM.
Regarding `O=C(O)CC(NC(=O)C(Cc1ccccc1)CP(=O)(O)[C@H](Cc1ccccc1)NC(=O)OCc1ccccc1)C(=O)O` (mixture of isomers), the midpoint of inhibition in test [2], the IC50, lay at 30 µM.
Take `NCCCCC(NC(=O)C(Cc1ccccc1)CP(=O)(O)[C@H](Cc1ccccc1)NC(=O)OCc1ccccc1)C(=O)O` (mixture of isomers): the IC50 is > 100 µM in test [1] and 30 µM in test [2].
Consider `CC(NC(=O)C(Cc1ccccc1)CP(=O)(O)[C@H](Cc1ccccc1)NC(=O)OCc1ccccc1)C(=O)O` (mixture of isomers), for which the half-inhibitory concentration (IC50) in test [1] was 0.3 µM; in test [2], 8 µM.
With `CC(C)C(NC(=O)C(Cc1ccccc1)CP(=O)(O)[C@H](Cc1ccccc1)NC(=O)OCc1ccccc1)C(=O)O` (mixture of isomers), in test [2], half-maximal inhibition (IC50) was put at 1.7 µM.
In the case of `NC(=O)CC(NC(=O)C(Cc1ccccc1)CP(=O)(O)[C@H](Cc1ccccc1)NC(=O)OCc1ccccc1)C(=O)O` (mixture of isomers), the IC50 in test [1] worked out at 10 µM; in test [2], 20 µM.
For `NC(=O)CCC(NC(=O)C(Cc1ccccc1)CP(=O)(O)[C@H](Cc1ccccc1)NC(=O)OCc1ccccc1)C(=O)O` (mixture of isomers), in that order: 15 µM and 6 µM.
For `O=C(N[C@@H](Cc1ccccc1)P(=O)(O)CC(Cc1ccccc1)C(=O)NC(Cc1ccc(O)cc1)C(=O)O)OCc1ccccc1` (mixture of isomers), the values for the IC50 in test [1] and in test [2] were 2.3 µM and 12 µM, respectively.
On to `O=C(N[C@@H](Cc1ccccc1)P(=O)(O)CC(Cc1ccccc1)C(=O)NC(Cc1ccccc1)C(=O)O)OCc1ccccc1` (mixture of isomers), for which the IC50 is 0.8 µM in test [1] and 10 µM in test [2].
On the same counts, the results for `O=C(N[C@@H](Cc1ccccc1)P(=O)(O)CC(Cc1ccccc1)C(=O)NC(Cc1c[nH]c2ccccc12)C(=O)O)OCc1ccccc1` (mixture of isomers) are 1.4 µM and 1.1 µM.
As for `O=C(O)CC[C@@H](NC(=O)C(Cc1ccccc1)CP(=O)(O)[C@H](Cc1ccccc1)NC(=O)OCc1ccccc1)C(=O)O` (mixture of isomers), the IC50 in test [2] was > 100 µM.
For the molecule `N=C(N)NCCC[C@@H](NC(=O)C(Cc1ccccc1)CP(=O)(O)[C@H](Cc1ccccc1)NC(=O)OCc1ccccc1)C(=O)O` (mixture of isomers), the IC50 in test [1] is > 60 µM; in test [2] it was > 100 µM.
`CCCCC(NC(=O)C(Cc1ccccc1)CP(=O)(O)[C@H](Cc1ccccc1)NC(=O)OCc1ccccc1)C(=O)O` (mixture of isomers) yielded an IC50 in test [2] of 12 µM.
As for `CC(O)C(NC(=O)C(Cc1ccccc1)CP(=O)(O)[C@H](Cc1ccccc1)NC(=O)OCc1ccccc1)C(=O)O` (mixture of isomers), the IC50 was determined as 10 µM in test [1] and 5 µM in test [2].
`CC(C)CC(NC(=O)C(Cc1ccccc1)CP(=O)(O)[C@H](Cc1ccccc1)NC(=O)OCc1ccccc1)C(=O)O` (mixture of isomers; form 1) returned an IC50 in test [2] of 23 µM.
In test [2], `CC(C)CC(NC(=O)C(Cc1ccccc1)CP(=O)(O)[C@H](Cc1ccccc1)NC(=O)OCc1ccccc1)C(=O)O` (mixture of isomers; form 2) yielded an IC50 of 20 µM.
With `C[C@H](O)[C@@H](NC(=O)C(Cc1ccccc1)CP(=O)(O)[C@H](Cc1ccccc1)NC(=O)OCc1ccccc1)C(=O)O` (single isomer, unassigned), the IC50 in test [1] is 50 µM; in test [2] (endothelial cell), > 100 µM.
Turning to `O=C(N[C@@H](Cc1ccccc1)P(=O)(O)CC(Cc1ccccc1)C(=O)NC(Cc1ccc(O)cc1)C(=O)O)OCc1ccccc1` (single isomer, unassigned), the IC50 came to 1 µM in test [1] and 7 µM in test [2].
On to `C[C@H](O)[C@@H](NC(=O)C(Cc1ccccc1)CP(=O)(O)[C@H](Cc1ccccc1)NC(=O)OCc1ccccc1)C(=O)O` (stereo in doubt), for which the IC50 in test [1] and in test [2] was > 100 µM throughout.
Turning to `CC(C)[C@@H](NC(=O)C(Cc1ccccc1)CP(=O)(O)[C@H](Cc1ccccc1)NC(=O)OCc1ccccc1)C(=O)O` (stereo in doubt), in test [2], the IC50 was > 100 µM.
Regarding `NCCCCC(NC(=O)C(Cc1ccccc1)CP(=O)(O)[C@H](Cc1ccccc1)NC(=O)OCc1ccccc1)C(=O)O` (stereo in doubt), the figures for the IC50 in test [1] (endothelial cell) and in test [2] were > 100 µM and 60 µM, respectively.
Take `CC(C)C(NC(=O)C(Cc1ccccc1)CP(=O)(O)[C@H](Cc1ccccc1)NC(=O)OCc1ccccc1)C(=O)O` (stereo in doubt): the half-maximal inhibitory concentration (IC50) in test [2] came out at 80 µM.
`NC(=O)CCC(NC(=O)C(Cc1ccccc1)CP(=O)(O)[C@H](Cc1ccccc1)NC(=O)OCc1ccccc1)C(=O)O` (stereo in doubt): the IC50 in test [1] and in test [2] was > 100 µM each time.
`O=C(N[C@@H](Cc1ccccc1)P(=O)(O)CC(Cc1ccccc1)C(=O)NC(Cc1c[nH]c2ccccc12)C(=O)O)OCc1ccccc1` (stereo in doubt): the half-inhibitory concentration (IC50) in test [1] was 10 µM; in test [2], 5.8 µM.
